Data from patent US8410141B2, “Insecticidal arylpyrrolines” (Bayer Cropscience AG, priority 2009, dated 2013).

Legend:
Type in all cases: in vivo
[1] = test system: Tobacco Cutworm (Spodoptera litura) Larvae; test: Test against tobacco cutworm (Spodoptera litura) larvae, leaf immersion; details: 100 ppm; sweet potato leaves immersed; third-instar larvae; after 7 days
Procedure: (§1) Unless not mentioned otherwise, the test solutions were prepared as follows:
(§2) Containing as solvent: Dimethylformamide, 3 parts by weight; and as emulsifier: Polyoxyethylene alkyl phenyl ether, 1 part by weight. To prepare the test solution, 1 part by weight of an active compound is mixed with the above-mentioned amount of solvent containing the above-mentioned amount of emulsifier, and the mixture is diluted with water to the desired concentration.
The leaves of sweet potato were immersed in the test solution at the appropriate concentration, and the leaves were dried in air. The leaves were then placed in a petri dish having a diameter of 9 cm, and ten third-instar larvae of tobacco cutworm were released therein. The petri dish was placed in a temperature-controlled chamber at 25° C. After 2 days and 4 days sweet potato leaves were additionally added. After 7 days, the number of dead larvae was counted to calculate the insecticidal activity. An insecticidal activity of 100% means that all larvae were killed, whereas an insecticidal activity of 0% means that no larva was killed. In the current test, the results of two petri dishes for each partition were averaged.

[2] = test system: Rice Leafroller (Cnaphalocrocis medinalis) Larvae; test: Test against rice leafroller larvae, seed treatment; details: 8 g/1 kg dry seeds, leaves cut 28 days after seeding, third-instar larvae, after 7 days
Procedure: To prepare the test solution, 1 part by weight of an active compound is mixed with the 8 parts of acetone, and mix with 20 mg of micronized mineral. After that 1 g of dry rice seeds and 50 ul of water are added and mixed well and dried in the air. Sow treated seeds in the pot having a diameter of 12 cm. 28 days after seeding the leaves were cut and placed in a petri dish having a diameter of 9 cm. And then five third-instar larvae of rice leafroller were released therein. The petri dish was placed in a temperature-controlled room at 25° C. After 7 days, the number of dead larvae was counted to calculate the insecticidal activity. An insecticidal activity of 100% means that all larvae were killed, whereas an insecticidal activity of 0% means that no larva was killed. […] The comparative compound B is No. 1-79 in WO2009/097992.

[3] = test system: Ctenocephalides felis; test: Ctenocephalides felis test (CTECFE); details: for mortality: 100 ppm in cattle blood, adult unfed fleas, after 2 days
Procedure: (§3) Solvent: dimethyl sulfoxide
To produce a suitable preparation of active compound, 10 mg of active compound are dissolved in 0.5 ml solvent, and the concentrate is diluted with cattle blood to the desired concentration. Approximately 20 adult unfed (Ctenocepahlides felis) are placed in flea chambers. The blood chamber, sealed with parafilm on the bottom, are filled with cattle blood supplied with compound solution and placed on top of the flea chamber, so that the fleas are able to suck the blood. The blood chamber is heated to 37° C. whereas the flea chamber is kept at room temperature. After 2 days mortality in % is determined. 100% means that all the fleas have been killed; 0% means that none of the fleas have been killed.

[4] = test system: Cucurbit Leaf Beetle (Aulacophora femoralis); test: Test against cucurbit leaf beetle (Aulacophora femoralis), leaf immersion; details: 100 ppm; cucumber leaves immersed; second-instar larvae; after 7 days
Procedure: as §1, §2
Cucumber leaves were immersed in the test solution at the appropriate concentration, and the leaves were dried in air. The leaves were then placed in a plastic cup containing sterilized black soil, and five second-instar larvae of cucurbit leaf beetle were released therein. The plastic cup was placed in a temperature-controlled chamber at 25° C. After 7 days, the number of dead larvae was counted, and thus the insecticidal activity was calculated. An insecticidal activity of 100% means that all beetles were killed, whereas an insecticidal activity of 0% means that no beetle was killed.

[5] = test system: Musca domestica; test: Musca domestica test; details: for mortality: 100 ppm, sponge with sugar and compound solution, adults, after 2 days
Procedure: as §3
To produce a suitable preparation of active compound, 10 mg of active compound are dissolved in 0.5 ml solvent, and the concentrate is diluted with water to the desired concentration. Prior to the assay, a piece of kitchen sponge is soaked with a mixture of sugar and compound solution and placed into a container. 10 adults (Musca domestica) are placed into the container and closed with a perforated lid. After 2 days mortality in % is determined. 100% means that all the flies have been killed; 0% means that none of the flies have been killed.

[6] = test system: Lucilia cuprina 1st instar larvae; test: Lucilia cuprina (48 h)
Procedure: Species: Lucilia cuprina 1st instar larvae (age 24 hrs)
as §3
10 mg active compound are dissolved in 0.5 ml dimethyl sulfoxide. Serial dilutions are made to obtain the desired rates. Approximately 20 Lucilia cuprina 1st instar larvae are transferred into a test tube containing 1 cm^3 of minced horse meat and 0.5 ml aqueous dilution of test compound. After 48 hrs percentage of larval mortality are recorded. 100% efficacy=all larvae are killed, […].

[7] = test system: Tobacco Cutworm (Spodoptera litura) Larvae; test: Test against tobacco cutworm larvae, root systemicity; details: 100 ppm; broccoli seedling roots dipped 3 days; second-instar larvae; after 4 days
Procedure: as §1, §2
The roots of seedling of broccoli at 1.2 leaf stage were dipped into the test solution at the appropriate concentration. After 3 days, the leaves were cut and placed in a petri dish having a diameter of 9 cm. And then five second-instar larvae of tobacco cutworm were released therein. The petri dish was placed in a temperature-controlled room at 25° C. After 4 days, the number of dead larvae was counted, to calculate the insecticidal activity. An insecticidal activity of 100% means that all larvae were killed, whereas an insecticidal activity of 0% means that no larva was killed.

[8] = test system: Tobacco Cutworm (Spodoptera litura) Larvae; test: Test against tobacco cutworm larvae, systemic test by soil drench; details: 250 ppm, 20 ml soil drench on potted broccoli, leaves cut after 7 days, third-instar larvae
Procedure: as §1, §2
20 ml of the test solution at the appropriate concentration was treated on the soil surface of potted broccoli seedling at 2 to 3 leaf stage. After 7 days, the leaves were cut and placed in a petri dish having a diameter of 9 cm. And then ten third-instar larvae of tobacco cutworm were released therein. The petri dish was placed in a temperature-controlled room at 25° C. After 7 days, the number of dead larvae was counted to calculate the insecticidal activity. An insecticidal activity of 100% means that all larvae were killed, whereas an insecticidal activity of 0% means that no larva was killed. […] The comparative compound A is No. 1-72 in WO2009/097992.

[9] = test system: Two-Spotted Spider Mite (Tetranychus urticae); test: Test against two-spotted spider mite (Tetranychus urticae), spray; details: 100 ppm; sprayed on kidney bean; adult mites; after 7 days
Procedure: as §1, §2
50 to 100 adult two-spotted spider mites were inoculated onto the leaves of kidney beans at the two-true leaf stage, which plant had been cultivated in a pot having a diameter of 6 cm. After one day, test solution at the appropriate concentration was sprayed thereon in a sufficient amount using a spray gun. After the spraying, the plant pot was placed inside a greenhouse, and after 7 days, the acaricidal activity was calculated. An acaricidal activity of 100% means that all mites were killed, whereas an acaricidal activity of 0% means that no mite was killed.

[10] = test system: adult engorged female Boophilus microplus ticks; test: Boophilus microplus (dip); details: for mortality: 100 ppm, ticks immersed one minute, after 7 days
Procedure: Solvent: Dimethylsulfoxid
To produce a suitable preparation of active compound, 10 mg of active compound are dissolved in 0.5 ml solvent, and the concentrate is diluted with water to the desired concentration. Eight to ten adult engorged female Boophilus microplus ticks are placed in perforated plastic beakers and immersed in aqueous compound solution for one minute. Ticks are transferred to a filter paper in a plastic tray. Egg deposition of fertile eggs is monitored after. After 7 days mortality in % is determined. 100% means that all the ticks have been killed; 0% means that none of the ticks have been killed.

[11] = test system: Nymphs of the tick Amblyomma hebraeum; test: Amblyomma hebraeum test (AMBYHE); details: 100 ppm; nymphs immersed one minute; after 42 days
Procedure: as §3
To produce a suitable preparation of active compound, 10 mg of active compound are dissolved in 0.5 ml solvent, and the concentrate is diluted with water to the desired concentration. Nymphs of the tick Amblyomma hebraeum are placed in perforated plastic beakers and immersed in aqueous compound solution for one minute. Ticks are transferred to a filter paper in a petri dish and incubated in a climate chamber for 42 days.
After 42 days mortality in % is determined. 100% means that all the ticks have been killed; 0% means that none of the ticks have been killed.

Structure (SMILES) | insecticidal activity [1] | insecticidal activity [4] | insecticidal activity [7] | acaricidal activity rate [9] | mortality [5] | other results
N#Cc1cc(C2=NCC(c3cc(Cl)nc(Cl)c3)(C(F)(F)F)C2)ccc1-n1cncn1 (stereo not drawn) [1-1, 5-[3-(2,6-dichloropyridin-4-yl)-3-(trifluoromethyl)-3,4-dihydro-2H-pyrrol-5-yl]-2-(1H-1,2,4-triazol-1-yl)benzonitrile] | 100% | 100% | 100% | 100% |  | insecticidal activity [2]: 100%; mortality at 100 ppm ([3]; Ctenocephalides felis, 48 h): 100%; mortality at 100 ppm ([5]; Musca domestica, 48 h): 100%; mortality at 100 ppm ([6]; Lucilia cuprina, 48 h, read-out: larval mortality): 100%; insecticidal activity [8]: 100%; mortality at 100 ppm ([10]; Rhipicephalus microplus, 168 h): 100%
FC(F)(F)C1(c2cc(Cl)nc(Cl)c2)CN=C(c2ccc(-n3cncn3)cc2)C1 (stereo not drawn) [1-2] | 100% | 100% | 100% | 100% | 90% | 
N#Cc1cc(C2=NCC(c3cc(Cl)cc(C(F)(F)F)c3)(C(F)(F)F)C2)ccc1-n1cncn1 (stereo not drawn) [1-10] | 100% | 100% | 100% | 100% |  | mortality [11]: 100%
N#Cc1cc(C2=NCC(c3cc(Cl)c(F)c(Cl)c3)(C(F)(F)F)C2)ccc1-n1cncn1 (stereo not drawn) [1-13] | 100% | 100% | 100% | 100% |  | mortality [11]: 100%
N#Cc1cc(C2=NCC(c3cc(Cl)c(F)c(Cl)c3F)(C(F)(F)F)C2)ccc1-n1cncn1 (stereo not drawn) [1-20] | 100% | 100% | 100% | 100% |  | mortality [11]: 100%
N#Cc1cc(C2=NCC(c3ccnc(C(F)(F)F)c3)(C(F)(F)F)C2)ccc1-n1cncn1 (stereo not drawn) [1-21] | 100% | 100% | 100% | 100% | 80% | insecticidal activity [8]: 100%
N#Cc1cc(C2=NCC(c3cc(C(F)(F)F)nc(C(F)(F)F)c3)(C(F)(F)F)C2)ccc1-n1cncn1 (stereo not drawn) [1-22] | 100% | 100% | 100% | 100% |  | insecticidal activity [2]: 100%; insecticidal activity [8]: 100%
N#Cc1cc(C2=NCC(c3cc(Cl)c4c(c3)OC(F)(F)O4)(C(F)(F)F)C2)ccc1-n1cncn1 (stereo not drawn) [1-25] | 100% | 100% | 100% |  | 90% | larval mortality ([6]; 100 ppm, minced horse meat, after 48 hrs): 90%
Fc1cc(C2=NCC(c3cc(Cl)c(Cl)c(Cl)c3)(C(F)(F)F)C2)ccc1-n1cncn1 (stereo not drawn) [1-29] | 100% | 100% |  |  |  | mortality [10]: 95%
FC(F)(F)C1(c2cc(Cl)c(Cl)c(Cl)c2)CN=C(c2ccc(-n3cncn3)c(Cl)c2)C1 (stereo not drawn) [1-30] | 100% | 100% |  | 100% |  | mortality [3]: 90%
N#Cc1cc(C2=NCC(c3cc(Cl)c(Cl)c(Cl)c3)(C(F)(F)F)C2)cnc1-n1cncn1 (stereo not drawn) [1-52] | 100% | 100% |  | 100% |  | mortality [10]: 90%
N#Cc1cc(C2=NCC(c3cc(Cl)nc(Cl)c3)(C(F)(F)F)C2)cnc1-n1cncn1 (stereo not drawn) [1-66] | 100% | 100% | 100% |  | 80% | 
N#Cc1cc(C2=NCC(c3cccc(C(F)(F)F)n3)(C(F)(F)F)C2)ccc1-n1cncn1 (stereo not drawn) [1-126] | 100% | 100% | 100% |  | 90% | mortality [3]: 90%
N#Cc1cc(C2=NCC(c3cncc(Cl)c3)(C(F)(F)F)C2)ccc1-n1cncn1 (stereo not drawn) [1-480] |  | 100% |  | 100% |  | mortality [3]: 90%
N#Cc1cc(C2=NCC(c3cccc(OC(F)F)c3)(C(F)(F)F)C2)ccc1-n1cncn1 (stereo not drawn) [1-483] |  | 100% |  | 100% |  | mortality [3]: 90%
N#Cc1cc(C2=NCC(c3cc(OC(F)F)cc(OC(F)F)c3)(C(F)(F)F)C2)ccc1-n1cncn1 (stereo not drawn) [1-485] | 100% | 100% | 100% | 100% |  | mortality [10]: 90%
N#Cc1cc(C2=NCC(c3cc(Cl)c([N+](=O)[O-])c(Cl)c3)(C(F)(F)F)C2)ccc1-n1cncn1 (stereo not drawn) [1-489] | 100% |  |  |  | 80% | mortality [10]: 80%
